Counter-ions that a name gives are not always drawn.
Experiments:
[1] = test system: LI0612 HCC patient derived cells; test: CellTiter-Glo growth inhibition, HCC patient-derived cells LI0612; type: cell-based, human; details: Homo sapiens; LI0612, 72 hours
Description: (§1) The patient derived Hepatocellular Carcinoma (HCC) cells were maintained in medium respectively described in table 15 containing 1% penicillin-streptomycin (Life Technologies, 15070-063), with a supplements for primary cell culture (PCS) containing hydrocortisone (50 nM), Epidermal Growth Factor (20 ng/ml), β-fibroblast Growth Factor (10 ng/ml), Heparin (2 μg/ml) ITS liquid media supplement (1×) and non-essential amino acid (NEAA, 0.01 mM, 1×). The primary cell were cultured in a humidified atmosphere (95% relative humidity) with 5% CO2 at 37° C.
(§2) The cell growth inhibition assay was performed as described previously in example 5 using the CellTiter-Glo® luminescent cell viability assay as described by the manufacturer (Promega, Ref G7571). The number of cells seeded per well (in 96-Well Flat Clear Bottom Black Polystyrene TC-Treated Microplates, Cat #3340, Corning®) is described in the table 16. A backseal black sticker (Cat #6005189, Perkin Elmer) was placed to the bottom of each plate before recording CellTiter-Glo® luminescence.
(§3) The experimental data are analyzed using a computer program, Graphpad Prism V 5.0 (GraphPad Software, Inc. La Jolla, Calif.) and EC50 values were determined as the dose of compound required to reduce absorbance values to 50% of the signal obtained for vehicle treated cell cultures and were a mean of at least three independent experiments.

[2] = test system: LI0801 HCC patient derived cells; test: CellTiter-Glo growth inhibition, HCC patient-derived cells LI0801; type: cell-based, human; details: Homo sapiens; LI0801, 72 hours
Description: as §1, §2, §3

[3] = test system: CAKI-1 cell line; test: CellTiter-Glo growth inhibition assay, CAKI-1; type: cell-based; details: Homo sapiens, CAKI-1, 72 h
Description: CAKI-1 and 786-0 cell lines were maintained in RPMI 1640 medium (Dutscher, L0498) containing 1% penicillin-streptomycin (Dutscher, P06-07100) and 10% Fetal Bovine Serum (Gibco, W3387L) and cultured at 37° C. with 5% CO2.
Cell viability was measured using the CellTiter-Glo® luminescent cell viability assay as described by the manufacturer (Promega, Ref G7571) using an Infinite F200Pro luminometer (Tecan). Briefly, cells were plated onto 96-well plates (white with clear bottom) in 90 μL of media per well and were allowed to grow overnight before the assay.
Compounds 2-3 and two reference compounds (Sorafenib and Sunitinib) were added at different concentrations to each well, and cell cultures were incubated for 72 h. For compound 2-3 analysis, H2O was used as a negative control (=untreated) and all concentrations were tested in a constant percentage of H2O. For Sorafenib and Sunitinib analysis, DMSO was used as a negative control (=untreated) and all concentrations were tested in a constant percentage of DMSO. 72 h after incubation of compounds, 100 μL of CellTiter-Glo® were added to each well and luminescence was measured using an Infinite F200Pro (Tecan). EC50 values were determined as the dose of compound required to reduce luminescent values to 50% of the signal obtained for untreated cell cultures. The experimental data were analyzed using a computer program, Graphpad Prism v5 (GraphPad Software, Inc. La Jolla, Calif.). All experiments were at least done in triplicate and repeated at least three independent times.

CC(C)(C)NC1CCN(c2cc(NCc3ccc(Cl)cc3)nc3ccccc23)CC1 [Compound 2-3, 2-(4-chlorobenzylamino)-4-(4-tert-butylaminopiperidin-1-yl)-quinoline hydrochloride salt]
EC50 [1]: 6900 nM
EC50 [2]: 2100 nM
EC50 [3]: 1400 nM

Source: patent US10722505B2, “Substituted 2,4 diamino-quinoline as new anticancer agents” (GENOSCIENCE PHARMA, priority 2014, dated 2020)
